Measured values from patent publication US6706663B2, “Herbicidal 3-heterocyclic substituted benzisothiazole and benzisoxazole compounds” (Wyeth, priority 2000, dated 2004).

How the values were obtained:
[1] = system: SAGPY (Sagittaria pygmaea); assay: Flooded paddy, preemergence weed control; format: in vivo, L.; settings: rated 3-4 weeks after treatment, 0-9 rating scale
Procedure, shortened: (§1)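 Under paddy conditions, seeds or vegetative propagules go into the top 0.5 cm of silt loam; the soil is then flooded to 1.5–3 cm and kept so. Treated pots stay in a greenhouse; response is rated 0-9 visually versus control.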

[2] = system: ECHCG (Echinochloa crus-galli); assay: Postemergence herbicidal evaluation; format: in vivo, (L.) Beau; settings: postemergence
Procedure, shortened: (§2)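 Seedlings grown about two weeks in flats, sprayed, then kept under standard greenhouse care. Rated visually 4–5 weeks after treatment on a 0–9 scale (stand, vigour, malformation, size, chlorosis, overall appearance) relative to untreated control; repeat tests averaged.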

[3] = system: ABUTH (Abutilon theophrasti); assay: Postemergence herbicidal evaluation; format: in vivo, Medic.; settings: postemergence
Procedure, shortened: as §2

[4] = system: ZEAMX (Corn, Field); assay: Postemergence herbicidal evaluation; format: in vivo, Zea mays, L.; settings: postemergence
Procedure, shortened: as §2

[5] = system: ORYSAT (Rice, Tebonnet); assay: Flooded paddy, post-transplant rice tolerance; format: in vivo, Oryza sativa, (L.) Tebonnet; settings: flooded paddy, post-transplant rice, rated 3-4 weeks after treatment, 0-9 rating scale
Procedure, shortened: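 Visual 0-9 rating against a control, covering stand, vigor, malformation, size, chlorosis and overall appearance. Treatment was applied after transplanting paired ten-day-old seedlings into flooded silt loam, with water kept 1.5 to 3 cm deep on greenhouse benches.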

[6] = system: TRZAWR (Wheat, Winter, cv Riband); assay: Postemergence herbicidal evaluation; format: in vivo, Triticum aestivum; settings: postemergence
Procedure, shortened: as §2

[7] = system: ECHORC (Echinochloa oryzoides); assay: Flooded paddy, preemergence weed control; format: in vivo, Echinochloa oryzoides (Ard.) Fritsch.; settings: rated 3-4 weeks after treatment, 0-9 rating scale
Procedure, shortened: as §1

[8] = system: ORYSAT (Rice, Tebonnet); assay: Postemergence herbicidal evaluation; format: in vivo, Oryza sativa, (L.) Tebonnet; settings: postemergence
Procedure, shortened: as §2

[9] = system: ORYSAT (Rice, Tebonnet); assay: Preemergence herbicidal evaluation; format: in vivo, Oryza sativa, (L.) Tebonnet; settings: rated 4-5 weeks after treatment
[10] = system: IPOHE (Ipomoea hederacea); assay: Postemergence herbicidal evaluation; format: in vivo, (L.) Jacq.; settings: postemergence
Procedure, shortened: as §2

[11] = system: TRZAWR (Wheat, Winter, cv Riband); assay: Preemergence herbicidal evaluation; format: in vivo, Triticum aestivum; settings: rated 4-5 weeks after treatment
Procedure, shortened: (§3)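 Visual 0–9 rating versus control (stand, vigor, malformation, size, chlorosis, overall appearance), scored four to five weeks post-treatment. Preemergence spray of aqueous acetone solution onto freshly seeded soil cups; plants grown under conventional greenhouse care.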

[12] = system: ABUTH (Abutilon theophrasti); assay: Preemergence herbicidal evaluation; format: in vivo, Medic.; settings: rated 4-5 weeks after treatment
[13] = system: AMBEL (Ambrosia artemisifolia); assay: Postemergence herbicidal evaluation; format: in vivo, L.; settings: postemergence
Procedure, shortened: as §2

[14] = system: CASOB (Cassia obtusifolia); assay: Postemergence herbicidal evaluation; format: in vivo, L.; settings: postemergence
Procedure, shortened: as §2

[15] = system: CHEAL (Chenopodium album); assay: Postemergence herbicidal evaluation; format: in vivo, L.; settings: postemergence
Procedure, shortened: as §2

[16] = system: CYPSE (Cyperus serotinus); assay: Flooded paddy, preemergence weed control; format: in vivo, Rottb.; settings: rated 3-4 weeks after treatment, 0-9 rating scale
Procedure, shortened: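 Herbicidal effect was scored visually on a 0–9 scale against an untreated control 3–4 weeks after treatment. Compounds were applied preemergence as 50/50 v/v aqueous/acetone mixtures into flood water (1.5–3 cm deep over silt loam), at roughly 0.0080 to 0.1250 kg/ha active ingredient.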

[17] = system: AMBEL (Ambrosia artemisifolia); assay: Preemergence herbicidal evaluation; format: in vivo, L.; settings: rated 4-5 weeks after treatment
Procedure, shortened: as §3

[18] = system: CASOB (Cassia obtusifolia); assay: Preemergence herbicidal evaluation; format: in vivo, L.; settings: rated 4-5 weeks after treatment
Procedure, shortened: as §3

[19] = system: CHEAL (Chenopodium album); assay: Preemergence herbicidal evaluation; format: in vivo, L.; settings: rated 4-5 weeks after treatment
Procedure, shortened: as §3

## CC1COC(c2nsc3ccc(-n4c(=O)cc(C(F)(F)F)n(C)c4=O)cc23)O1 (stereo not shown) [Compound 57, 1-methyl-3-[3-(4-methyl-1,3-dioxolan-2-yl)-1,2-benzisothiazol-5-yl]-6-(trifluoromethyl)uracil]
[1]; rate 0.0080 kg/ha
  herbicidal rating, SAGPY: 0.0
[1]; rate 0.0320 kg/ha
  herbicidal rating, SAGPY: 4.5
[1]; rate 0.1250 kg/ha
  herbicidal rating, SAGPY: 7.5
[2]; rate 0.0320 kg/ha
  ECHCG herbicidal rating: 3.0
[2]; rate 0.0620 kg/ha
  ECHCG herbicidal rating: 3.0
[3]; rate 0.0320 kg/ha
  ABUTH herbicidal rating: 9.0
[3]; rate 0.0620 kg/ha
  ABUTH herbicidal rating: 9.0
[4]; rate 0.0320 kg/ha
  ZEAMX herbicidal rating: 5.0
[4]; rate 0.0620 kg/ha
  ZEAMX herbicidal rating: 5.5
[5]; rate 0.0080 kg/ha
  herbicidal rating, ORYSAT (rice tolerance): 3.0
[5]; rate 0.0320 kg/ha
  herbicidal rating, ORYSAT (rice tolerance): 8.0
[5]; rate 0.1250 kg/ha
  herbicidal rating, ORYSAT (rice tolerance): 9.0
[6]; rate 0.0320 kg/ha
  TRZAWR herbicidal rating: 4.5
[6]; rate 0.0620 kg/ha
  TRZAWR herbicidal rating: 5.0
[7]; rate 0.0080 kg/ha
  herbicidal rating, ECHORC: 5.0
[7]; rate 0.0320 kg/ha
  herbicidal rating, ECHORC: 8.0
[7]; rate 0.1250 kg/ha
  herbicidal rating, ECHORC: 9.0
[8]; rate 0.0320 kg/ha
  ORYSAT herbicidal rating: 4.0
[8]; rate 0.0620 kg/ha
  ORYSAT herbicidal rating: 4.5
[9]; Rate 0.0620 kg/ha
  Preemergence herbicidal rating ORYSAT: 8.0
[9]; Rate 0.1250 kg/ha
  Preemergence herbicidal rating ORYSAT: 8.0
[9]; Rate 0.2500 kg/ha
  Preemergence herbicidal rating ORYSAT: 9.0
[10]; rate 0.0320 kg/ha
  IPOHE herbicidal rating: 9.0
[10]; rate 0.0620 kg/ha
  IPOHE herbicidal rating: 9.0
[11]; Rate 0.0620 kg/ha
  Preemergence herbicidal rating TRZAWR: 8.0
[11]; Rate 0.1250 kg/ha
  Preemergence herbicidal rating TRZAWR: 8.0
[11]; Rate 0.2500 kg/ha
  Preemergence herbicidal rating TRZAWR: 9.0
[12]; Rate 0.0620 kg/ha
  Preemergence herbicidal rating ABUTH: 9.0
[12]; Rate 0.1250 kg/ha
  Preemergence herbicidal rating ABUTH: 9.0
[12]; Rate 0.2500 kg/ha
  Preemergence herbicidal rating ABUTH: 9.0
[13]; rate 0.0320 kg/ha
  AMBEL herbicidal rating: 9.0
[13]; rate 0.0620 kg/ha
  AMBEL herbicidal rating: 9.0
[14]; rate 0.0320 kg/ha
  CASOB herbicidal rating: 7.0
[14]; rate 0.0620 kg/ha
  CASOB herbicidal rating: 9.0
[15]; rate 0.0320 kg/ha
  CHEAL herbicidal rating: 9.0
[15]; rate 0.0620 kg/ha
  CHEAL herbicidal rating: 7.0
[16]; rate 0.0320 kg/ha
  herbicidal rating, CYPSE: 9.0
[16]; rate 0.1250 kg/ha
  herbicidal rating, CYPSE: 9.0
[17]; Rate 0.0620 kg/ha
  Preemergence herbicidal rating AMBEL: 9.0
[17]; Rate 0.1250 kg/ha
  Preemergence herbicidal rating AMBEL: 9.0
[17]; Rate 0.2500 kg/ha
  Preemergence herbicidal rating AMBEL: 9.0
[18]; Rate 0.0620 kg/ha
  Preemergence herbicidal rating CASOB: 5.5
[18]; Rate 0.1250 kg/ha
  Preemergence herbicidal rating CASOB: 7.5
[18]; Rate 0.2500 kg/ha
  Preemergence herbicidal rating CASOB: 9.0
[19]; Rate 0.0620 kg/ha
  Preemergence herbicidal rating CHEAL: 9.0
[19]; Rate 0.1250 kg/ha
  Preemergence herbicidal rating CHEAL: 9.0
[19]; Rate 0.2500 kg/ha
  Preemergence herbicidal rating CHEAL: 9.0

## Cn1c(C(F)(F)F)cc(=O)n(-c2cc3c(C4OCCO4)nsc3cc2F)c1=O [Compound 61, 3-[3-(1,3-dioxolan-2-yl)-6-fluoro-1,2-benzisothiazol-5-yl]-1-methyl-6-(trifluoromethyl)uracil]
[1]; rate 0.0080 kg/ha
  herbicidal rating, SAGPY: 3.0
[1]; rate 0.0320 kg/ha
  herbicidal rating, SAGPY: 8.3
[1]; rate 0.1250 kg/ha
  herbicidal rating, SAGPY: 9.0
[2]; rate 0.0320 kg/ha
  ECHCG herbicidal rating: 5.0
[2]; rate 0.0620 kg/ha
  ECHCG herbicidal rating: 3.0
[3]; rate 0.0320 kg/ha
  ABUTH herbicidal rating: 9.0
[3]; rate 0.0620 kg/ha
  ABUTH herbicidal rating: 9.0
[4]; rate 0.0320 kg/ha
  ZEAMX herbicidal rating: 5.5
[4]; rate 0.0620 kg/ha
  ZEAMX herbicidal rating: 5.5
[5]; rate 0.0080 kg/ha
  herbicidal rating, ORYSAT (rice tolerance): 8.0
[5]; rate 0.0320 kg/ha
  herbicidal rating, ORYSAT (rice tolerance): 9.0
[5]; rate 0.1250 kg/ha
  herbicidal rating, ORYSAT (rice tolerance): 9.0
[6]; rate 0.0320 kg/ha
  TRZAWR herbicidal rating: 5.5
[7]; rate 0.0080 kg/ha
  herbicidal rating, ECHORC: 8.7
[7]; rate 0.0320 kg/ha
  herbicidal rating, ECHORC: 9.0
[7]; rate 0.1250 kg/ha
  herbicidal rating, ECHORC: 9.0
[8]; rate 0.0320 kg/ha
  ORYSAT herbicidal rating: 5.5
[9]; Rate 0.0002 kg/ha
  Preemergence herbicidal rating ORYSAT: 0.0
[9]; Rate 0.0160 kg/ha
  Preemergence herbicidal rating ORYSAT: 8.7
[9]; Rate 0.0320 kg/ha
  Preemergence herbicidal rating ORYSAT: 9.0
[10]; rate 0.0320 kg/ha
  IPOHE herbicidal rating: 9.0
[10]; rate 0.0620 kg/ha
  IPOHE herbicidal rating: 9.0
[11]; Rate 0.0002 kg/ha
  Preemergence herbicidal rating TRZAWR: 0.0
[11]; Rate 0.0160 kg/ha
  Preemergence herbicidal rating TRZAWR: 8.5
[11]; Rate 0.0320 kg/ha
  Preemergence herbicidal rating TRZAWR: 9.0
[12]; Rate 0.0002 kg/ha
  Preemergence herbicidal rating ABUTH: 0.0
[12]; Rate 0.0160 kg/ha
  Preemergence herbicidal rating ABUTH: 9.0
[12]; Rate 0.0320 kg/ha
  Preemergence herbicidal rating ABUTH: 9.0
[13]; rate 0.0320 kg/ha
  AMBEL herbicidal rating: 9.0
[13]; rate 0.0620 kg/ha
  AMBEL herbicidal rating: 9.0
[14]; rate 0.0320 kg/ha
  CASOB herbicidal rating: 9.0
[15]; rate 0.0320 kg/ha
  CHEAL herbicidal rating: 9.0
[15]; rate 0.0620 kg/ha
  CHEAL herbicidal rating: 9.0
[16]; rate 0.0320 kg/ha
  herbicidal rating, CYPSE: 9.0
[16]; rate 0.1250 kg/ha
  herbicidal rating, CYPSE: 9.0
[17]; Rate 0.0002 kg/ha
  Preemergence herbicidal rating AMBEL: 0.0
[17]; Rate 0.0160 kg/ha
  Preemergence herbicidal rating AMBEL: 9.0
[17]; Rate 0.0320 kg/ha
  Preemergence herbicidal rating AMBEL: 9.0
[18]; Rate 0.0002 kg/ha
  Preemergence herbicidal rating CASOB: 0.0
[18]; Rate 0.0160 kg/ha
  Preemergence herbicidal rating CASOB: 7.3
[18]; Rate 0.0320 kg/ha
  Preemergence herbicidal rating CASOB: 7.0
[19]; Rate 0.0002 kg/ha
  Preemergence herbicidal rating CHEAL: 2.0
[19]; Rate 0.0160 kg/ha
  Preemergence herbicidal rating CHEAL: 9.0
[19]; Rate 0.0320 kg/ha
  Preemergence herbicidal rating CHEAL: 9.0
